Data published in patent US20090176841A1, “NOVEL 6-5 SYSTEM BICYCLIC HE[…] ITS PHAR[…]” (Sanwa Kagaku Kenkyusho Co., Ltd., priority 2006, published 2009).

Key:
recombinant human TRα = biological target: T1, recombinant human TRα (Homo sapiens, UniProt P10827); experiment: biochemical; details: TR[…] (IC50, nM), displacement of 125I-T3 (0.16 nM)
T1 sequence (P10827 190-410 isoform P10827-2): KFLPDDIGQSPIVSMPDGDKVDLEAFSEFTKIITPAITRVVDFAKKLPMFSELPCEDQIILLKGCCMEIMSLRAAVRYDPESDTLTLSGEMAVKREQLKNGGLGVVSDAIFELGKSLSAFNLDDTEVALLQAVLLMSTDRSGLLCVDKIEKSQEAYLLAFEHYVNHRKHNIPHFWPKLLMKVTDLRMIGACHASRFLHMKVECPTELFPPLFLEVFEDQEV
From the text: (§1) Thyroid Hormone Receptor Binding Test
(§2) (1) Preparation of Fused Protein Having Ligand Binding Region of Thyroid Hormone Receptor
(§3) Human TRα and human TRβ ligand binding domains were expressed in Escherichia coli as a fused protein (recombinant human TRα or recombinant human TRβ) having TRα and TRβ ligand binding domains at a C-terminus of His-Patch Thioredoxin using the His-Patch Thioredoxin fusing protein expressing system (Invitrogen).
(§4) A nucleotide sequence of a region corresponding to the fused protein was confirmed by DNA sequence analysis.
(§5) Escherichia coli by which the fused protein had been subjected to expression inducement were collected by a centrifugation method, and ground using ultrasound to prepare a ground cell liquid containing the fused protein. The ground cell liquid was centrifuged at 15000 rpm for about 30 minutes, and a solution containing the fused protein from the supernatant using a nickel chelating column was obtained. An NAP-10 column was replaced with a binding solution (20 mM, Tris-HCl, 0.15 M NaCl, 8% Glycerol, 0.1% BSA, 1 mM EDTA, 10 mM 2-melcaptethanol). The resulting binding solution containing the fused protein was frozen and stored at −70° C. or lower.
(§6) (2) Binding Affinity for Thyroid Hormone Receptor
(§7) This binding solution (60 μL) was added to all wells of a 96-well plate (MILLIPORE MultiScreen-HV, Cat. No. MANVN4550, Lot. No. F4SN86613). […] 80 μL of SephadexG25 was added to each well of MultiScreen-HV (MILLIPORE, Cat. No. MANVN4550, Lot. No. F4SN86613), the binding solution was added to sufficiently swell, and this was centrifuged at 600×g for 1 minute to prepare a column of SephadexG25. […] Again, 25 μL untreated binding solution was overlaid on the SephadexG25 column, and this was immediately centrifuged at 600×g for 1 minute. […] As an amount of recombinant human TRα or recombinant human TRβ used in the present test, an amount by which proper radioactivity is obtained in a range where an addition amount of the receptor and an amount of the complex in the above test system, was used.
(§8) This was divided by the total complex amount to calculate a binding rate as the following equation:
(§9) Binding rate=remaining complex amount/total complex amount

recombinant human TRβ = biological target: T2, recombinant human TRβ (Homo sapiens, UniProt P10828); experiment: biochemical; details: TR[…] (IC50, nM), displacement of 125I-T3 (0.16 nM)
T2 sequence (P10828 244-461): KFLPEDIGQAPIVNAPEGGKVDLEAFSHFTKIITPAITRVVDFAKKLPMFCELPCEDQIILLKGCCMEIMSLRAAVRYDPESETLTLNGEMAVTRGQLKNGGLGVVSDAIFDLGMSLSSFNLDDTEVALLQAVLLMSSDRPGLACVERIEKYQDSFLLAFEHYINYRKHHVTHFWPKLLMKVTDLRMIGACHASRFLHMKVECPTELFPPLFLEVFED
From the text: as §1, §2, §3, §4, §5, §6, §7, §8, §9

IC50 (recombinant human TRα) | IC50 (recombinant human TRβ) | Structure (SMILES)
5200 nM | 150 nM | Cc1ccc(NC(=O)CC(=O)O)c2cc(C)n(Cc3ccc(O)c(C(O)c4ccc(F)cc4)c3)c12 (single isomer, unassigned; (+)) [Example 130, (+)-N-(1-{3-[(4-fluorophenyl)hydroxymethyl]-4-hydroxybenzyl}-2,7-dimethyl-1H-indol-4-yl)malonamic acid]
99 nM | 7.1 nM | Cc1ccc(NC(=O)CC(=O)O)c2cc(C)n(Cc3ccc(O)c(C(O)c4ccc(F)cc4)c3)c12 (single isomer, unassigned; (-)) [Example 131, (−)-N-(1-{3-[(4-fluorophenyl)hydroxymethyl]-4-hydroxybenzyl}-2,7-dimethyl-1H-indol-4-yl)malonamic acid]
1500 nM | 220 nM | CCOC(=O)C(=O)Nc1cccc2c1ccn2Cc1ccc(O)c(C(C)C)c1 [Example 1, Ethyl N-[1-(4-hydroxy-3-isopropylbenzyl)-1H-indol-4-yl]oxamate]
370 nM | 72 nM | CCOC(=O)C(=O)Nc1cccc2c1cc(C)n2Cc1ccc(O)c(C(C)C)c1 [Example 8]
490 nM | 60 nM | CCOC(=O)C(=O)Nc1ccc(C)c2c1ccn2Cc1ccc(O)c(C(C)C)c1 [Example 15]
280 nM | 56 nM | CCOC(=O)C(=O)Nc1cccc2c1c(C)c(C)n2Cc1ccc(O)c(C(C)C)c1 [Example 19]
37 nM | 6.3 nM | CCOC(=O)C(=O)Nc1ccc(C)c2c1cc(C)n2Cc1ccc(O)c(C(C)C)c1 [Example 21]
3400 nM | 310 nM | CCOC(=O)CC(=O)Nc1ccc(C)c2c1cc(C(F)(F)F)n2Cc1ccc(O)c(C(C)C)c1 [Example 26]
> 10000 nM | 650 nM | CCc1cc2c(NC(=O)Cc3nnn[nH]3)cccc2n1Cc1ccc(O)c(C(C)C)c1 [Example 41]
8200 nM | 150 nM | Cc1ccc(NC(=O)Cc2nnn[nH]2)c2ccn(Cc3ccc(O)c(C(C)C)c3)c12 [Example 42]
450 nM | 8.5 nM | Cc1ccc(NC(=O)Cc2nnn[nH]2)c2cc(C)n(Cc3ccc(O)c(C(C)C)c3)c12 [Example 43]
480 nM | 84 nM | CCOC(=O)C(=O)Nc1ccc(C)c2c1ccn2Cc1ccc(O)c(C(O)c2ccc(F)cc2)c1 (stereo not drawn) [Example 56, Ethyl N-(1-{3-[(4-fluorophenyl)hydroxymethyl]-4-hydroxybenzyl}-7-methyl-1H-indol-4-yl)oxamate]
3800 nM | 24 nM | CCOC(=O)CC(=O)Nc1ccc(C)c2c1cc(C)n2Cc1ccc(O)c(C(O)c2ccc(F)cc2)c1 (stereo not drawn) [Example 57, Ethyl N-(1-{3-[(4-fluorophenyl)hydroxymethyl]-4-hydroxybenzyl}-2,7-dimethyl-1H-indol-4-yl)malonamate]
1200 nM | 170 nM | CC(C)c1cc(Cn2ccc3c(NC(=O)C(=O)O)cccc32)ccc1O [Example 63, N-[1-(4-hydroxy-3-isopropylbenzyl)-1H-indol-4-yl]oxamic acid]

Structure (SMILES) | IC50 (recombinant human TRα) | IC50 (recombinant human TRβ)
Cc1ccc(NC(=O)CC(=O)O)c2cc(C)n(Cc3ccc(O)c(Br)c3)c12 [Example 65] | > 10000 nM | 470 nM
CC(C)c1cc(Cn2ccc3c(NC(=O)CC(=O)O)cccc32)ccc1O [Example 69] | > 10000 nM | 430 nM
Cc1cc2c(NC(=O)C(=O)O)cccc2n1Cc1ccc(O)c(C(C)C)c1 [Example 72] | 230 nM | 40 nM
Cc1cc2c(NC(=O)CC(=O)O)cccc2n1Cc1ccc(O)c(C(C)C)c1 [Example 73] | 5100 nM | 210 nM
Cc1cc2c(OCC(=O)O)cccc2n1Cc1ccc(O)c(C(C)C)c1 [Example 74] | 2700 nM | 200 nM
CCc1cc2c(NC(=O)CC(=O)O)cccc2n1Cc1ccc(O)c(C(C)C)c1 [Example 75] | > 10000 nM | 550 nM
CC(C)c1cc(Cn2c(C(F)(F)F)cc3c(NC(=O)CC(=O)O)cccc32)ccc1O [Example 76] | 610 nM | 67 nM
